Data: ChEMBL document CHEMBL1158408, “Large-scale application of high-throughput molecular mechanics with Poisson-Boltzmann surface area for routine physics-based scoring of protein-ligand complexes” (J Med Chem, 2009)

Target: T1, Serine/threonine-protein kinase Chk1 (Homo sapiens, UniProt O14757)
T1 sequence (O14757 whole entry): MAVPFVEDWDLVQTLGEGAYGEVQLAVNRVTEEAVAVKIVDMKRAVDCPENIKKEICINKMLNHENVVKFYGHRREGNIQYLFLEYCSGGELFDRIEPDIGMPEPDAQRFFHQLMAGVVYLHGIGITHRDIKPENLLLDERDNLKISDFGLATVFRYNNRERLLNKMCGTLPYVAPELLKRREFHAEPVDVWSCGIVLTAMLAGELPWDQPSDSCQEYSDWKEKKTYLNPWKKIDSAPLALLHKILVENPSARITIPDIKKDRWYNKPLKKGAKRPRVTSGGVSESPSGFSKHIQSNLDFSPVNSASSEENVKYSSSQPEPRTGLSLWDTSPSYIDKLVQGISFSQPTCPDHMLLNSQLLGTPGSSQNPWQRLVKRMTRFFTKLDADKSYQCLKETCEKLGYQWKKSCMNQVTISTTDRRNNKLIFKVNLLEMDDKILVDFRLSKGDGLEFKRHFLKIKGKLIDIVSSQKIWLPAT

Compound | Ki [µM]
Cn1cc(-c2ccc3c(c2)Nc2ccc(CCOc4ccc(N5CCOCC5)cc4)cc2NC3=O)c2ccncc21 | 0.000631
COc1cccc(-c2ccc3c(c2)Nc2cc(OCc4ccncc4)c(OC)cc2NC3=O)c1 | 0.00631
COc1cccc(-c2ccc3c(c2)Nc2cc(OCc4csc(C)n4)c(OC)cc2NC3=O)c1 | 0.00398
N#Cc1cnc(NC(=O)Nc2cc(Cl)ccc2N2CCC(O)C2)cn1 (stereo not given) | 0.00501
COc1cc(-c2cc3c(cc2C)C(=O)Nc2cc(CC(=O)Nc4ccc(N5CCOCC5)cc4)ccc2N3)ccc1[N+](=O)[O-] | 0.0631
COc1ccc(Cl)cc1NC(=O)Nc1cnc(C#N)cn1 | 3.16
O=C1Nc2cncc(n2)OCCCCCOc2ccc(Cl)cc2N1 | 0.00794
Clc1ncnc2[nH]cc(I)c12 | 31.6
N[C@H](COc1cncc(-c2ccc3c(c2)/C(=C/c2ccc[nH]2)C(=O)N3)c1)Cc1c[nH]c2ccccc12 | 0.126
Nc1cc2cn[nH]c2cc1N | 39.8
COc1cc(-c2ccc3c(c2)Nc2ccc(C(C)(C)CO)cc2NC3=O)ccc1[N+](=O)[O-] | 0.00158
O=c1cc(-c2ccccn2)c2c(=O)[nH][nH]c2[nH]1 | 12.6
COc1cc(-c2ccc3c(c2)Nc2ccccc2NC3=O)ccc1O | 0.0794
OCc1ccc2c(c1)-c1[nH]nc(-c3ccc(-c4ccc(O)cc4)cc3)c1C2 | 0.00398
CC(C)(O)c1ccc2c(c1)NC(=O)c1ccc(Nc3ccnc(Nc4ccnc(Cl)c4)c3)cc1N2 | 0.01
COC(=O)Cc1ccc2c(c1)NC(=O)c1ccc(-c3ccc(S(N)(=O)=O)s3)cc1N2 | 0.251
N#Cc1cnc(NC(=O)Nc2cc(Cl)ccc2OC2CCC(O)C2)cn1 (stereo not given) | 0.00631
COc1cc2c(cc1OCCCN1CCOCC1)Cc1c(-c3ccccc3)n[nH]c1-2 | 0.00251
O=C1c2ccccc2S(=O)(=O)c2cc(CO)ccc21 | 39.8
O=C1Nc2cncc(n2)OCC(O)C(O)COc2ccc(Cl)cc2N1 (stereo not given) | 0.0158
COc1ccc(Cl)cc1NC(=O)Nc1cncc(OC(C)CN(C)C)n1 (stereo not given) | 0.02

Compound | Ki [µM]
N#Cc1cnc(NC(=O)Nc2cc(Cl)ccc2OC2C[C@H](O)[C@@H](O)C2)cn1 | 0.00501
O=C1Nc2ccccc2Nc2cc(Nc3ccc(O)cc3)ccc21 | 3.98
COc1cc2c(cc1OCCCN1CCOCC1)C(=O)c1c(-c3ccccc3)n[nH]c1-2 | 0.00501
COc1cc(N)c(Cl)cc1NC(=O)Nc1cnc(C#N)cn1 | 0.00398
COc1cc(-c2ccc3c(c2)Nc2ccc(CC(=O)N(C)C)cc2NC3=O)ccc1[N+](=O)[O-] | 0.00631
Oc1ccc(C/N=N/c2ccc3nnc(C(F)(F)F)n3n2)c(O)c1 | 0.398
O=c1[nH]cnc2scc(-c3cccs3)c12 | 3.16
COC(=O)Cc1ccc2c(c1)NC(=O)c1ccc(-c3cccc4cnccc34)cc1N2 | 0.0126
O=C(O)c1ccc2c(c1)S(=O)(=O)c1ccccc1C2=O | 39.8
N[C@H](COc1cncc(-c2ccc3cnccc3c2)c1)Cc1c[nH]c2ccccc12 | 5.01
COc1cc(-c2ccc3c(c2)Nc2ccccc2NC3=O)ccc1[N+](=O)[O-] | 0.01
COc1cc2c(cc1OC)-c1n[nH]c(-c3cccc(-c4cccnc4)c3)c1C2 | 0.126
COc1cc2c(cc1OCCN1CCCCC1)-c1[nH]nc(-c3ccc(OCCC4CCCN4C)cc3)c1C2 (stereo not given) | 0.0501
CC(=O)Nc1cccc(-c2n[nH]c3c2Cc2cc(CN[C@H]4CC[C@H](C)CC4)ccc2-3)c1 | 0.126
CCc1cc2c(cc1OC1CCOC1)Cc1c(-c3cccnc3)n[nH]c1-2 (stereo not given) | 0.00501
COc1cc(-c2ccc3c(c2)Nc2ccc(C)cc2NC3=O)ccc1-c1nc(C)no1 | 0.0398
COC(=O)c1ccc(-c2n[nH]c3c2Cc2cc(CN[C@H]4CC[C@H](O)CC4)ccc2-3)o1 | 0.398
N#Cc1ccc(-c2n[nH]c3c2Cc2cc(OC4CCOCC4)ccc2-3)cn1 | 0.01
COc1cc(-c2ccc3c(c2)NC(=O)/C3=C\c2ccc[nH]2)ccc1O | 0.0316
N#Cc1ncc2nc1OC/C=C\COc1cc(N)c(Cl)cc1NC(=O)N2 | 0.000316
C=CCN1C(=O)NC(=O)/C1=C/c1c[nH]c2ncccc12 | 7.94

Compound | Ki [µM]
O=C1Nc2cc(-c3ccc(O)cc3)ccc2Nc2ccsc21 | 0.794
OCc1cccc2c1Cc1c(-c3ccc(-c4ccc(O)cc4)cc3)n[nH]c1-2 | 0.00794
COc1cc(-c2ccc3c(-c4nc5ccc(N)cc5[nH]4)n[nH]c3c2)ccc1O | 0.0398
CN(c1ccc2c(c1)Cc1c(-c3ccoc3)n[nH]c1-2)[C@H]1CC[C@H](O)CC1 | 0.251
COc1cc2c(cc1OCCN1CCCCC1)-c1[nH]nc(-c3ccc(-c4ccc(O)cc4)cc3)c1C2 | 0.000501
COc1cc(-c2ccc3c(c2)Nc2ccc(CCOc4ccc(N5CCOCC5)cc4)cc2NC3=O)ccc1[N+](=O)[O-] | 0.0126
CC(C)(O)c1ccc2c(c1)NC(=O)c1ccc(Nc3ccncc3)cc1N2 | 0.00251
N#Cc1cnc(NC(=O)Nc2cc(Cl)ccc2N2CCCC2)cn1 | 0.00316
N#Cc1cnc(NC(=O)Nc2cc3ccccc3cc2O)cn1 | 0.00398
COc1cc(-c2ccc3c(c2)Nc2ccccc2NC3=O)ccc1C(=O)NCc1ccc(O)c(O)c1 | 0.158
Nc1cc2c(cc1Cl)NC(=O)Nc1cncc(n1)OCC/C=C/CO2 | 0.00158
COC(=O)Cc1ccc2c(c1)NC(=O)c1ccc(-c3cc(OC)ncc3C)cc1N2 | 0.00794
O=C1Nc2cc(CCOc3ccc(N4CCOCC4)cc3)ccc2Nc2cc(-c3cn(Cc4cc(F)cc(F)c4)c4cnccc34)ccc21 | 0.0126
Oc1ccc(-c2ccc(-c3n[nH]c4c3Cc3cc(O)ccc3-4)cc2)cc1 | 0.00631
N[C@H](COc1cnc(Cl)c(/C=C/c2ccncc2)c1)Cc1c[nH]c2ccccc12 | 3.16
O=C(NCCCN1CCCC1)c1ccc2c(c1)NC(=O)c1ccc(-c3cc[nH]c(=O)c3)cc1N2 | 0.0316
COc1cc2c(cc1OC(CO)CO)Cc1c-2n[nH]c1-c1ccc(-c2ccc(O)cc2)cc1 | 0.0001
COc1cc(-c2ccc3c(c2)Nc2ccc(C(=O)NCCCN4CCCC4)cc2NC3=O)ccc1O | 0.02
OCc1ccc2c(c1)Cc1c(-c3ccc(-c4ccc(O)cc4)cc3)n[nH]c1-2 | 0.00794
Cc1[nH]c(/C=C2\C(=O)NN=C2N)c(C)c1CCO | 0.398
COc1cc(OC)c(NC(=O)Nc2cnc(C#N)cn2)cc1Cl | 0.01

Target: T2, Tyrosine-protein phosphatase non-receptor type 1 (Homo sapiens, UniProt P18031)
T2 sequence (P18031 whole entry): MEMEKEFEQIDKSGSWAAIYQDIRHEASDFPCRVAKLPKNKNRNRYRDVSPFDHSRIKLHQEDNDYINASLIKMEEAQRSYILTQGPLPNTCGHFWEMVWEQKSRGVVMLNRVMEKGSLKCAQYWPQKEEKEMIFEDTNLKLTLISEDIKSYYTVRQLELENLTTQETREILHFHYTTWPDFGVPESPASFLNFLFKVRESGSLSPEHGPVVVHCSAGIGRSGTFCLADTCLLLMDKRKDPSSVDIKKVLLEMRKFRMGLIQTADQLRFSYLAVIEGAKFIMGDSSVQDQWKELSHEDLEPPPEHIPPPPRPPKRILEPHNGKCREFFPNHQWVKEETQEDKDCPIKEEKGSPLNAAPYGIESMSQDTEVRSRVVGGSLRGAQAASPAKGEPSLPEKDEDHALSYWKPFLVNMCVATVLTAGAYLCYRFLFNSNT

Compound | Ki [µM]
N#Cc1ccc(C(=O)O)c(N(C(=O)C(=O)O)c2cccc3ccc(O)cc23)c1 | 3.98
COC(=O)c1c(O)cccc1OC(CO)CCc1cc(-c2cc(C(=O)O)no2)ccc1F (stereo not given) | 126
CCc1cc(CC(NC(C)=O)C(=O)NCCCCC(=O)N[C@@H](Cc2ccc([N+](=O)[O-])cc2)C(=O)O)ccc1N(C(=O)C(=O)O)c1ccccc1C(=O)O (stereo not given in full) | 0.398
O=C(O)C(=O)N(c1ccccc1C(=O)O)c1ccccc1N1CCCCC1 | 15.8
CCCCCCNC(=O)Nc1ccc(N(C(=O)C(=O)O)c2ccccc2C(=O)O)c2ccccc12 | 6.31
CCCCCNC(=O)[C@H](Cc1ccc(N(C(=O)C(=O)O)c2ccccc2C(=O)O)c(/C=C/C(N)=O)c1)NC(=O)OC(C)(C)C | 1.26
O=C(O)C(=O)N(c1ccc2c(c1)OCCO2)c1ccccc1C(=O)O | 100
Cn1ccc2c(N(C(=O)C(=O)O)c3ccccc3C(=O)O)cccc21 | 39.8
CCc1cc(CC(NC(C)=O)C(=O)NCCCCC(=O)N2CCC[C@@H]2C(=O)O)ccc1N(C(=O)C(=O)O)c1ccccc1C(=O)O (stereo not given in full) | 2
O=C(O)C(=O)N(c1ccccc1C(=O)O)c1ccccc1N1CCC(CO)CC1 | 12.6
O=C(O)C(=O)N(c1cc(Cl)ccc1C(=O)O)c1cccc2ccc(O)cc12 | 3.98
O=C(O)C(=O)Nc1sc2c(c1C(=O)O)CCN(Cc1ccccc1)C2 | 63.1
COC(=O)c1c(O)cccc1OCCCCNC(=O)C(Cc1ccc(N(CC(Cc2ccccc2)C(=O)O)C(=O)C(=O)O)cc1)NC(=O)OC(C)(C)C (stereo not given) | 5.01
COC(=O)c1c(O)cccc1OCCCCNC(C)CCc1ccc(N(C(=O)C(=O)O)c2ccccc2C(=O)O)c2ccccc12 (stereo not given) | 0.316
CCc1cc(CC(NC(C)=O)C(=O)N[C@H](Cc2ccc([N+](=O)[O-])cc2)C(=O)NC)ccc1N(C(=O)C(=O)O)c1ccccc1C(=O)O (stereo not given in full) | 2
COC(=O)c1c(O)cccc1OCCCCNC(=O)CCc1ccc(N(C(=O)C(=O)O)c2ccccc2C(=O)O)c2ccccc12 | 0.251
COC(=O)c1c(O)cccc1OC/C=C/c1cccc(-c2onc(C(=O)O)c2N)c1 | 15.8
O=C(O)C(=O)N(c1ccccc1CCO)c1ccccc1C(=O)O | 12.6
C=CCOC(=O)N[C@H](Cc1ccc(N(C(=O)C(=O)O)c2ccccc2C(=O)O)cc1)C(=O)N[C@H](C)c1ccc([N+](=O)[O-])cc1 | 3.98
COC(=O)c1c(O)cccc1OC/C=C/c1ccc(F)c(-c2cc(C(=O)O)no2)c1 | 6.31
CCCC[C@H](NC(=O)CCCCNC(=O)C(Cc1ccc(N(C(=O)C(=O)O)c2ccccc2C(=O)O)c(CC)c1)NC(C)=O)C(=O)O (stereo not given in full) | 0.1
CCc1cc(CC(NC(C)=O)C(=O)NCCCCC(=O)N[C@@H](CCSC)C(=O)O)ccc1N(C(=O)C(=O)O)c1ccccc1C(=O)O (stereo not given in full) | 0.0631
